What was measured:
[1] = system: CAR T cells; assay: CAR T cell memory phenotype by flow cytometry (LSRII), TCN added during CAR T cell production; type: cell-based, human; conditions: healthy donor PBMC T cells; TCN added on day 2 before first spin transduction; flow cytometry on day 7
Procedure: FIGS. 1A to 1G show TCN increases central memory CAR T cell population. T cells were isolated from healthy donor PBMCs using negative selection. TCN was added on day 2 before the first spin transduction. On day 7 cells were stained for flow cytometry and run on an LSRII.
T cells were isolated from healthy donor PBMCs using negative selection. TCN was added on day 2 before the first spin transduction. On day 7 cells were stained for flow cytometry and run on an LSRII.
For the anti-human CD19 constructs the SFG backbone was modified to include the FMC63 ScFv with a CD8a trans-membrane and hinge domain followed by either CD28 or 4-1BB, and CD3. All SFG constructs were calcium phosphate transfected into H29 cells. Retroviral supernatants of transfected H29 were harvested and used to transduce Phoenix E or RD114 cells. Retroviral supernatant of producer cells was harvested, 0.45 μm filtered, and used to transduce T cells as described. Viability was measured by trypan blue staining and enumerated on an automated cell counter (Bio-Rad). Transduction efficiency was estimated by flow cytometry as a percentage of protein L+ live cells. For downstream experiments CAR T cell doses were normalized based on CAR gene transfer but not sorted to exclude CAR-negative T cells. As a result, total T cell dose was varied.

[2] = system: p-Akt; assay: p-Akt western blot in m1928z CAR T cells stimulated with 3T3-mCD19 targets; type: cell-based, mouse (C57BL6); conditions: C57BL6 splenocyte T cells, TCN added on day 2, day 5 stimulation with 3T3-mCD19 targets for 24 hrs
Procedure: T cells were isolated from C57BL6 splenocyes using negative selection. TCN was added on day 2 before the first spin transduction. On day 5 CAR T cells were stimulated with 3T3-mCD19 targets for 24 hrs. After stimulation cells were lysed and run by western blot. […] T cells were isolated from C57BL6 splenocyes using negative selection. TCN was added on day 2 before the first spin transduction. On day 5 CAR T cells were stimulated with 3T3-mCD19 targets for 24 hrs. After stimulation cells were lysed and run by western blot.

[3] = system: h19BBz CAR T cells; assay: Real time cell killing of 3T3-hCD19 target cells by h19BBz CAR T cells (xCelligence RTCA); type: cell-based, human; conditions: healthy donor T cells, TCN added on day 2
Procedure: (§1) T cells were isolated from healthy donor PBMCs using negative selection. TCN was added on day 2 before the first spin transduction. To measure real time cell killing CAR T cells were stimulated with 3T3-hCD19 target cells using an xCelligence RTCA machine. To measure cytokine secretion CAR T cells were stimulated with target cells for 24 hrs. Supernatant was then collected and run using Ella to measure cytokines. […] T cells were isolated from healthy donor PBMCs using negative selection. TCN was added on day 2 before the first spin transduction. To measure real time cell killing CAR T cells were stimulated with 3T3-hCD19 target cells using an xCelligence RTCA machine. To measure cytokine secretion CAR T cells were stimulated with target cells for 24 hrs. Supernatant was then collected and run using Ella to measure cytokines.

[4] = system: h19BBz CAR T cells; assay: Cytokine secretion of h19BBz CAR T cells stimulated with target cells for 24 hrs (Ella); type: cell-based, human; conditions: healthy donor T cells; TCN added on day 2; target cell stimulation 24 hrs; supernatant run on Ella
Procedure: as §1

[5] = system: T cells; assay: Toxicity of TCN for T cells; type: cell-based; conditions: human healthy donor T cells, in vitro
Procedure: Previous studies have shown drugs given during CART cell production can influence their function. To determine the effect of TCN human healthy donor T cells are treated with TCN prior to CAR transduction. 10 μM of TCN is used because it is the highest non-toxic dose for T cells. After transduction and proliferation in culture in vitro assays are preformed to determine CAR T cell function. These include cytotoxicity, cytokine secretion, RNA-seq, polyfunctional strength index, and CAR T cell phenotype. We next evaluate the function of CAR T cells given TCN during production in vivo. A total of 60 NSG mice are given the human B cell tumor cell line NALM6 containing luciferase on day −7. On day 0, 10 mice per group will be given untransduced, h1928z, or h19BBz CAR T cells produced with or without TCN. Bioluminescence imaging is used to determine tumor burden and measure overall survival.

CN1N=C(N)c2cn([C@@H]3O[C@H](COP(=O)(O)O)[C@@H](O)[C@H]3O)c3ncnc1c23 [TCN, Triciribine]
central memory CAR T cell population [1]: increases | effector memory CAR T cell population [1]: increases | p-Akt in m1928z CAR T cells [2]: inhibits | h19BBz CAR killing [3]: reduces | h19BBz CAR cytokine secretion [4]: reduces | highest non-toxic dose for T cells [5]: 10 µM

From US20230039099A1, “AKT INHIBITORS FOR ENHANCING CHIMERIC T CELL PERSISTENCE” (H. Lee Moffitt Cancer Center and Research Institute, Inc., priority 2019, published 2023)
